How the values were obtained:
mice = assay: Toxicity after oral administration to mice (lethality); format: in vivo; conditions: orally administered to mice in a dose of 300 mg/kg
From the text: The compound (I), the pharmacologically acceptable salt thereof, or the pure stereoisomeric form thereof has hypoglycemic and hypolipidemic activities. Further, the compound (I), the pharmacologically acceptable salt thereof or the pure stereoisomeric form thereof has low toxicity. […] Therefore, the compound (I), its pharmacologically acceptable salt or pure stereoisomeric form can be used for treatment of diabetes of mammals including man as it is or by combining with a known pharmacologically acceptable carrier, excipient, filler and the like.

KKA^y-mice = assay: Hypoglycemic and hypolipidemic activities in mice; format: in vivo; conditions: 0.005% by weight in chow diet, given freely for 4 days, KKA^y-mice (male, 9 to 10 weeks old); for Hypoglycemic activity (%): % reduction of blood sugar level from control groups, glucose oxidase method; for Hypolipidemic activity (%): % reduction of plasma lipid level from control groups, Kit Cleantech TG-S
Protocol: Test compounds were mixed with laboratory chow diet (CE-2, Clea Japan Inc., Tokyo, Japan) in a proportion of 0.005% by weight. The dietary admixture was given freely to KKA^y-mice (male, 9 to 10 weeks old) for 4 days. During the period, water was given freely. Blood was collected from the orbitral venous plexus. The blood sugar level was determined according to glucose oxidase method. The plasma lipid level was enzymatically determined by using Kit Cleantech TG-S (Iatron, Tokyo, Japan). Values represent % reduction from control groups.

Compound | lethality (mice) | Hypoglycemic activity (%) (KKA^y-mice) | Hypolipidemic activity (%) (KKA^y-mice)
CC(O)c1ccc(CCOc2ccc(CC3SC(=O)NC3=O)cc2)nc1 (stereo not drawn) [Example 1, 5-[4-[2-[5-(l-hydroxyethyl)-2-pyridyl]ethoxy]benzyl]-2,4-thiazolidinedione] | no lethal case was observed | 46% | 5%
CC(=O)c1ccc(CCOc2ccc(CC3SC(=O)NC3=O)cc2)nc1 (stereo not drawn) [Example 2, 5-[4-[2-(5-acetyl-2-pyridyl)ethoxy]benzyl]-2,4-thiazolidinedione] | no lethal case was observed | 56% | 43%

Reference: patent publication EP0579733B1, “THIAZOLIDINEDIONE DERIVATIVES, PRODUCTION AND USE THEREOF” (priority 1991, dated 1992)
